Experimental data reported in patent US20040024024A1, “Aromatic sulfone hydroxamates and their use as protease inhibitors” (priority 2001, published 2004).
pIC50: −log10 of the molar value.

How the values were obtained:
Human recombinant MMP-1 = target: T1, Human recombinant MMP-1 (Homo sapiens, UniProt P03956); experiment: In vitro MMP inhibition, IC50 determination (fluorogenic substrate I); assay type: biochemical; details: value outside parentheses
T1 construct: made in house; host or cells: MMP-1-transfected HT-1080 cells (spent media)
T1 sequence (P03956 100-469): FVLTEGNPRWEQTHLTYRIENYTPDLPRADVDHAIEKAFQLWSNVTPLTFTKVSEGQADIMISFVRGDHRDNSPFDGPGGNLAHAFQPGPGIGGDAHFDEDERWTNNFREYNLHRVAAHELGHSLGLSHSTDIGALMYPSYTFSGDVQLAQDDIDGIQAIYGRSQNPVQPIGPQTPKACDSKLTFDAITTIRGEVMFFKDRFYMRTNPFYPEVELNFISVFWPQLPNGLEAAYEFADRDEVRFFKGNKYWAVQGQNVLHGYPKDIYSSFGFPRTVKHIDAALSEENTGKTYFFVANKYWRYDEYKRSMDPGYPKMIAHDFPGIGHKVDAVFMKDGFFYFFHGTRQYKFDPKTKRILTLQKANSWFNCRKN
Summary of the method: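 APMA- or trypsin-activated enzyme, purified from spent media of transfected HT-1080 cells, incubated at room temperature with 4 μM MCA-Pro-Leu-Gly-Leu-Dpa-Ala-Arg-NH2 and graded inhibitor in Tris buffer pH 7.5 (10 mM CaCl2, 0.05% Brij). Cleavage read by fluorescence (ex 328/em 415 nm); IC50 from fluorescence reduction versus inhibitor concentration.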

Human recombinant MMP-2 = target: T2, Human recombinant MMP-2 (Homo sapiens, UniProt P08253); experiment: as above; assay type: biochemical; details: value outside parentheses
T2 construct: made in house; host or cells: MMP-2-transfected p2AHT2 cells
T2 sequence (P08253 110-660): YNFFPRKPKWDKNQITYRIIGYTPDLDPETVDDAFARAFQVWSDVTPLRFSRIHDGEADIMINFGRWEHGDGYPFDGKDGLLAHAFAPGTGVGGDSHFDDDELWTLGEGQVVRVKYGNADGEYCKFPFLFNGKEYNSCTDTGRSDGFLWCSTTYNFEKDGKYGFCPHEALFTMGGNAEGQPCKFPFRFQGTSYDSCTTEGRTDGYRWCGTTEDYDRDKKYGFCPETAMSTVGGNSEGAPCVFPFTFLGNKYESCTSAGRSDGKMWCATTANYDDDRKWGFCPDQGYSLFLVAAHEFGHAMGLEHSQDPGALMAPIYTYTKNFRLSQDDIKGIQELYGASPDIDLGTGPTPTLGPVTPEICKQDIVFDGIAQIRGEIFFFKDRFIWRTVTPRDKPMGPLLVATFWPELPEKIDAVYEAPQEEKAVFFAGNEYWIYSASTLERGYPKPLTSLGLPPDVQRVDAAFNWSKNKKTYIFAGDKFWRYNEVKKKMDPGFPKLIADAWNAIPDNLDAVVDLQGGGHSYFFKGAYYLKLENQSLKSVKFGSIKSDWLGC
Summary of the method: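 APMA- or trypsin-activated recombinant MMP-2 was incubated at room temperature with serial inhibitor dilutions in Tris buffer pH 7.5 (100 mM NaCl, 10 mM CaCl2, 0.05% Brij), with DMSO from 1% stocks, and 4 μM substrate I. Cleavage was read by fluorescence at 328/415 nm; IC50 was taken from the loss of fluorescence versus inhibitor concentration.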

Human recombinant MMP-9 = target: T3, Human recombinant MMP-9 (Homo sapiens, UniProt P14780); experiment: as above; assay type: biochemical; details: value outside parentheses
T3 construct: made in house; host or cells: MMP-9-transfected HT1080 cells (spent media)
Summary of the method: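 MMP-9 proenzyme purified from transfected HT1080 cell media, activated with APMA or trypsin. Compound dilutions in pH 7.5 Tris/NaCl/CaCl2 buffer with 0.05% polyoxyethylene 23 lauryl ether, incubated at room temperature with 4 μM MCA/Dpa substrate I. IC50 from fluorescence loss (ex 328, em 415 nm) versus inhibitor concentration.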

Human recombinant MMP-13 = target: T4, Human recombinant MMP-13 (Homo sapiens, UniProt P45452); experiment: as above; assay type: biochemical; details: value outside parentheses
T4 construct: made in house; host or cells: baculovirus / insect cells
Summary of the method: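 Fluorescence at 415 nm (excitation 328 nm) reports Gly-Leu cleavage of 4 μM quenched methoxycoumarin peptide substrate I. Human recombinant MMP-13, activated by trypsin or APMA, was incubated at room temperature with varied inhibitor concentrations in pH 7.5 Tris/NaCl/CaCl2 buffer; IC50 derived from reduced fluorescence.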

Human recombinant MMP-14 = target: T5, Human recombinant MMP-14 (Homo sapiens, UniProt P50281); experiment: as above; assay type: biochemical; details: value outside parentheses
T5 construct: The catalytic domain enzyme was expressed in E. coli inclusion bodies, solubilized in urea; made in house
Summary of the method: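 Catalytic-domain MMP-14, expressed in E. coli and refolded, activated with APMA or trypsin; compounds incubated at room temperature with 4 μM fluorogenic substrate I (MCA-PLGL-Dpa-AR-NH2) in Tris/NaCl/CaCl2 buffer, pH 7.5. Fluorescence at ex 328/em 415 nm; IC50 from loss of fluorescence versus inhibitor concentration.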

[1] = test system: solid tumor cancers (colorectal, pancreatic, ovarian, and prostate); details: cited from earlier work

T3 sequence (P14780 107-707 limits assumed): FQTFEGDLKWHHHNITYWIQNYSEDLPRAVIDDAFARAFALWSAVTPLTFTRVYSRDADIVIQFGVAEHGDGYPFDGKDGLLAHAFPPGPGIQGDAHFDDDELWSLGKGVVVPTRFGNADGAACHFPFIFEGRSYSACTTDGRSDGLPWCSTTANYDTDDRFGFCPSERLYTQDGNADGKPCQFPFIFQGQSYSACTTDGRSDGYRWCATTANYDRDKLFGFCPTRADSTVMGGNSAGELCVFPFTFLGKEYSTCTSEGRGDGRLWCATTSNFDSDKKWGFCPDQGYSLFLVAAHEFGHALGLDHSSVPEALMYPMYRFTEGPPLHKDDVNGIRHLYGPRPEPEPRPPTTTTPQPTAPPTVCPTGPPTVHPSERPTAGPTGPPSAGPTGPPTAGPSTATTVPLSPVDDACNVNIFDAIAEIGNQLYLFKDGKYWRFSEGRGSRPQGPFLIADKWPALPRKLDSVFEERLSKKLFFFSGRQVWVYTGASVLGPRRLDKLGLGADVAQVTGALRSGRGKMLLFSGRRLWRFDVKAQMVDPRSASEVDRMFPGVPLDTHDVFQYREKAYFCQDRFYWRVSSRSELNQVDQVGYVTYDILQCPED

pIC50 (Human recombinant MMP-1)	pIC50 (Human recombinant MMP-2)	pIC50 (Human recombinant MMP-9)	pIC50 (Human recombinant MMP-13)	pIC50 (Human recombinant MMP-14)	SMILES	most common drug-related toxicity ([1]; clinical trials, patients)	effect on cancer-specific antigens used as surrogate markers for biological activity ([1]; patients with advanced, rapidly progressive, treatment-refractory solid tumor cancers)
5.13	7.73	7.08	8.85	5.46	O=C(NO)C1(S(=O)(=O)c2ccc(OCCOCc3cccc(OC(F)(F)F)c3)cc2)CCOCC1 [Example 660]		
< 5.00	7.11	6.21	7.21	< 5.00	O=C(NO)C1(S(=O)(=O)c2ccc(OCCOCC3CCCCO3)cc2)CCOCC1 (stereo not shown) [Example 661]		
5.64	8.15	7.35	9.05	5.78	O=C(NO)C1(S(=O)(=O)c2ccc(OCCOCc3cccc([N+](=O)[O-])c3)cc2)CCOCC1 [Example 662]		
< 5.00	7.60	7.30	8.44	5.48	O=C(NO)C1(S(=O)(=O)c2ccc(OCCOCc3cccc(F)c3)cc2)CCOCC1 [Example 663]		
< 5.00	7.70	6.37	8.99	5.58	O=C(NO)C1(S(=O)(=O)c2ccc(OCC3Cc4cc(Oc5ccccc5)ccc4O3)cc2)CCOCC1 (stereo not shown) [Example 664]		
< 5.00	7.94	7.35	8.62	5.67	O=C(NO)C1(S(=O)(=O)c2ccc(OCCOc3ccc4c(c3)OCO4)cc2)CCOCC1 [Example 665]		
< 5.00	8.82	5.35	7.76	< 5.00	CN(C)C(=O)c1cccc(OCCOc2ccc(S(=O)(=O)C3(C(=O)NO)CCOCC3)cc2)c1 [Example 666]		
< 5.00	7.56	7.47	8.03	5.60	O=C(NO)C1(S(=O)(=O)c2ccc(OCCOc3ccccc3)cc2)CCOCC1 [Example 667]		
5.12	7.00	6.54	8.82	5.68	COC(=O)c1cccc(OCCOc2ccc(S(=O)(=O)C3(C(=O)NO)CCOCC3)cc2)c1 [Example 668]		
< 5.00	7.71	7.41	8.14	5.57	O=C(NO)C1(S(=O)(=O)c2ccc(OCCOc3cccc(F)c3)cc2)CCOCC1 [Example 669]		
< 5.00	6.79	6.74	7.85	5.63	CC(=O)Nc1cccc(OCCOc2ccc(S(=O)(=O)C3(C(=O)NO)CCOCC3)cc2)c1 [Example 670]		

Further lines, the molecule ahead of its results:

SMILES	pIC50 (Human recombinant MMP-1)	pIC50 (Human recombinant MMP-2)	pIC50 (Human recombinant MMP-9)	pIC50 (Human recombinant MMP-13)	pIC50 (Human recombinant MMP-14)	most common drug-related toxicity ([1]; clinical trials, patients)	effect on cancer-specific antigens used as surrogate markers for biological activity ([1]; patients with advanced, rapidly progressive, treatment-refractory solid tumor cancers)
O=C(NO)C1(S(=O)(=O)c2ccc(OCCCc3cccc(C4CCCCN4)c3)cc2)CCN(C2CC2)CC1 (stereo not shown) [Example 609]	< 5.00	6.24	5.16	8.11	< 5.00		
O=C(NO)C1(S(=O)(=O)c2ccc(OCCCSc3nc4ccccc4s3)cc2)CCN(CC2CC2)CC1 [Example 614]	< 5.00	8.74	8.07	9.15	5.03		
COCCN1CCC(C(=O)NO)(S(=O)(=O)c2ccc(OCCCSc3nc4ccccc4s3)cc2)CC1 [Example 615]	< 5.00	8.96	8.44	9.40	5.17		
COc1ccc(CC(=O)NCCOc2ccc(S(=O)(=O)C3(C(=O)NO)CCOCC3)cc2)cc1 [Example 616]	5.80	8.28	7.26	8.70	5.71		
O=C(NO)C1(S(=O)(=O)c2ccc(OCCCS(=O)(=O)NC34CC5CC(CC(C5)C3)C4)cc2)CCOCC1 [Example 645]	5.03	7.64	5.76	8.37	< 5.00		
NCc1ccc(OCCOc2ccc(S(=O)(=O)C3(C(=O)NO)CCOCC3)cc2)cc1 [Example 650]	5.54	8.96	8.61	8.61	5.62		
COC(=O)c1ccc(OCCOc2ccc(S(=O)(=O)C3(C(=O)NO)CCOCC3)cc2)cc1 [Example 651]	< 5.00	7.73	6.89	8.95	6.19		
O=C(CCCOc1ccc(S(=O)(=O)C2(C(=O)NO)CCOCC2)cc1)N1CC[C@@H](c2ccccc2)[C@@H](O)C1 [Example 652]	5.44	7.12	6.65	9.02	< 5.00		
O=C(NO)C1(S(=O)(=O)c2ccc(OCCOCc3ccccc3)cc2)CCOCC1 [Example 653]	5.41	7.60	7.31	8.25	5.60		
CN(C(=O)CCCOc1ccc(S(=O)(=O)C2(C(=O)NO)CCOCC2)cc1)c1ccccc1 [Example 654]	< 5.00	6.80	6.01	9.26	< 5.00		
O=C(NO)C1(S(=O)(=O)c2ccc(OCCOCC3CC3)cc2)CCOCC1 [Example 655]	< 5.00	7.62	7.16	7.55	< 5.00		
O=C(NO)C1(S(=O)(=O)c2ccc(OCCCn3nnc(-c4ccc(OC(F)(F)F)cc4)n3)cc2)CCOCC1 [Example 656]	< 5.00	6.39	5.93	9.18	< 5.00		
O=C(NO)C1(S(=O)(=O)c2ccc(OCCCn3nnc(-c4ccc(C(F)(F)F)cc4)n3)cc2)CCN(CC(F)(F)F)CC1 [Example 657]	< 5.00	6.50	6.42	5.22	5.46		
CC(=O)c1cccc(OCCOc2ccc(S(=O)(=O)C3(C(=O)NO)CCOCC3)cc2)c1 [Example 658]	< 5.00	6.81	6.05	8.49	< 5.00		
CNC(=O)[C@@H](NC(=O)[C@H](CC(C)C)[C@H](O)C(=O)NO)C(C)(C)C [Marimastat]						musculoskeletal pain and stiffness	dose-related reduction in the rise of cancer-specific antigens
